Measured values reported in PubChem BioAssay AID180 (DTP/NCI, 2004).
Values joined by “and” are separate entries in the source; they are usually repeats but may differ in a detail not shown here. Identical values can stand only once.

Tested on: BDF1 mice, Adenocarcinoma 755 s.c., tumor weight T/C
Assay: NCI In Vivo Anticancer Drug Screen. Data for tumor model Adenocarcinoma 755 (subcutaneous) in B6D2F1 (BDF1) mice
Details: endpoint: mean tumor weight, higher = larger tumour
Method in brief: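 Tumor-bearing mice receive test compound while controls get vehicle alone. Antitumor effect is scored from survival or tumor dimensions as a T/C quotient.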

[1] = dose: 15.0 mg/kg/injection, schedule: Q01DX011 (ip), vehicle: methylcellulose (MC)
[2] = dose: 100.0 mg/kg/injection, schedule: Q01DX011 (ip), vehicle: other
[3] = dose: 200.0 mg/kg/injection, schedule: Q01DX011 (ip), vehicle: other

With CCC1/C=C/C=C/CC(C)C(O)C(C)(O)C(=O)C(C)C(O)C(C)C(=O)C(C)C(O)C(C)/C=C/C(=O)OC2C(C)C(CC1)OC1(OC(CC(C)O)C(C)CC1=O)C2C (stereo unspecified) (tested in a mixture with another compound) the T/C (dose: 1.0 mg/kg/injection, schedule: Q01DX011 (ip), vehicle: saline) was 68 % of control, the T/C (dose: 2.0 mg/kg/injection, schedule: Q01DX011 (ip), vehicle: saline) was 87 % of control and the T/C (dose: 4.0 mg/kg/injection, schedule: Q01DX011 (ip), vehicle: saline) was 61 % of control.
For Cn1c(N)cc(=O)[nH]c1=S, the T/C (dose: 3.5 mg/kg/injection, schedule: Q01DX011 (ip), vehicle: methylcellulose (MC)) was 98 % of control, the T/C (dose: 7.0 mg/kg/injection, schedule: Q01DX011 (ip), vehicle: methylcellulose (MC)) was 40 % of control and the T/C [1] was 65 % of control. For the same molecule, the T/C (dose: 30.0 mg/kg/injection, schedule: Q01DX011 (ip), vehicle: methylcellulose (MC)) was 79 % of control and the T/C (dose: 60.0 mg/kg/injection, schedule: Q01DX011 (ip), vehicle: methylcellulose (MC)) was 29 % of control.
O=C(O)CCc1c[nH]c2ccc(N(CCCl)CCCl)cc12 was tested, and the T/C (dose: 1.2 mg/kg/injection, schedule: Q01DX011 (ip), vehicle: carboxymethylcellulose (CMC)) was 90 % of control, the T/C (dose: 2.5 mg/kg/injection, schedule: Q01DX011 (ip), vehicle: carboxymethylcellulose (CMC)) was 64 % of control and the T/C (dose: 5.0 mg/kg/injection, schedule: Q01DX011 (ip), vehicle: carboxymethylcellulose (CMC)) was 74 % of control.
In the case of Clc1ncnc2c1ncn2C1CCCO1 (stereo unspecified), the T/C (dose: 2.34 mg/kg/injection, schedule: Q01DX011 (ip), vehicle: methylcellulose (MC)) is reported as 50 % of control, the T/C (dose: 4.68 mg/kg/injection, schedule: Q01DX011 (ip), vehicle: methylcellulose (MC)) is reported as 68 % of control and the T/C (dose: 9.37 mg/kg/injection, schedule: Q01DX011 (ip), vehicle: methylcellulose (MC)) is reported as 69 % of control. The T/C (dose: 18.75 mg/kg/injection, schedule: Q01DX011 (ip), vehicle: methylcellulose (MC)) was 41 % of control, the T/C (dose: 37.5 mg/kg/injection, schedule: Q01DX011 (ip), vehicle: methylcellulose (MC)) was 9 % of control and the T/C (dose: 75.0 mg/kg/injection, schedule: Q01DX011 (ip), vehicle: methylcellulose (MC)) was 1 % of control.
CC1(C)O[C@@H]2C[C@H]3[C@@H]4CCC5=CC(=O)C=C[C@]5(C)[C@@]4(F)[C@@H](O)C[C@]3(C)[C@]2(C(=O)CO)O1 was tested, and the T/C (dose: 0.7 mg/kg/injection, schedule: Q01DX011 (sc), vehicle: steriod suspending solution) was 38 % of control, the T/C (dose: 3.0 mg/kg/injection, schedule: Q01DX011 (sc), vehicle: steriod suspending solution) was 53 % of control and the T/C (dose: 6.0 mg/kg/injection, schedule: Q01DX011 (sc), vehicle: steriod suspending solution) was 40 % of control.
In the case of CCC(C)Cn1cnc2c(SCc3ccccc3)nc(N)nc21 (stereo unspecified), the T/C (dose: 37.5 mg/kg/injection, schedule: Q01DX011 (ip), vehicle: carboxymethylcellulose (CMC)) is reported as 68 % of control, the T/C (dose: 75.0 mg/kg/injection, schedule: Q01DX011 (ip), vehicle: carboxymethylcellulose (CMC)) is reported as 32 % of control and the T/C (dose: 150.0 mg/kg/injection, schedule: Q01DX011 (ip), vehicle: carboxymethylcellulose (CMC)) is reported as 21 % of control. The T/C (dose: 300.0 mg/kg/injection, schedule: Q01DX011 (ip), vehicle: carboxymethylcellulose (CMC)) was 13 % of control.
In the case of Cc1cc(Nc2ccc(CCO)cc2)nc(N)n1, the T/C [1] is reported as 64 % of control, the T/C (dose: 31.0 mg/kg/injection, schedule: Q01DX011 (ip), vehicle: methylcellulose (MC)) is reported as 75 % of control and the T/C (dose: 62.0 mg/kg/injection, schedule: Q01DX011 (ip), vehicle: methylcellulose (MC)) is reported as 77 % of control. For the same molecule, the T/C (dose: 125.0 mg/kg/injection, schedule: Q01DX011 (ip), vehicle: methylcellulose (MC)) was 85 % of control and the T/C (dose: 250.0 mg/kg/injection, schedule: Q01DX011 (ip), vehicle: methylcellulose (MC)) was 73 % of control.
With CS(=O)(=O)OCCC(=O)N1CN(C(=O)CCOS(C)(=O)=O)CN(C(=O)CCOS(C)(=O)=O)C1 the T/C (dose: 28.0 mg/kg/injection, schedule: Q01DX011 (ip), vehicle: methylcellulose (MC)) was 115 % of control, the T/C (dose: 57.0 mg/kg/injection, schedule: Q01DX011 (ip), vehicle: methylcellulose (MC)) was 110 % of control and the T/C (dose: 225.0 mg/kg/injection, schedule: Q01DX011 (ip), vehicle: methylcellulose (MC)) was 81 % of control.
In the case of C=C(Br)CN(C)CCO, the T/C (dose: 50.0 mg/kg/injection, schedule: Q01DX011 (ip), vehicle: other) is reported as 85 % of control, the T/C [2] is reported as 76 % of control and the T/C [3] is reported as 53 % of control.
In the case of O=C(CCCl)N1CCN(C(=O)CCCl)CC1, the T/C (dose: 11.25 mg/kg/injection, schedule: Q01DX011 (ip), vehicle: methylcellulose (MC)) is reported as 64 % of control, the T/C (dose: 22.5 mg/kg/injection, schedule: Q01DX011 (ip), vehicle: methylcellulose (MC)) is reported as 66 % of control and the T/C (dose: 44.0 mg/kg/injection, schedule: Q01DX011 (ip), vehicle: saline) is reported as 86 % of control. The T/C (dose: 45.0 mg/kg/injection, schedule: Q01DX011 (ip), vehicle: methylcellulose (MC)) was 80 % of control, the T/C (dose: 87.5 mg/kg/injection, schedule: Q01DX011 (ip), vehicle: saline) was 63 % of control and the T/C (dose: 90.0 mg/kg/injection, schedule: Q01DX011 (ip), vehicle: methylcellulose (MC)) was 56 % of control. For the same molecule, the T/C (dose: 175.0 mg/kg/injection, schedule: Q01DX011 (ip), vehicle: methylcellulose (MC)) was 26 % of control and 33 % of control and 50 % of control, the T/C (dose: 175.0 mg/kg/injection, schedule: Q01DX011 (ip), vehicle: saline) was 70 % of control and the T/C (dose: 263.0 mg/kg/injection, schedule: Q01DX011 (ip), vehicle: saline) was 40 % of control.
CCCCCCCCCCCC[N+](C)(C)c1ncnc2nc[nH]c12 was tested, and the T/C (dose: 12.0 mg/kg/injection, schedule: Q01DX011 (ip), vehicle: carboxymethylcellulose (CMC)) was 103 % of control, the T/C (dose: 24.0 mg/kg/injection, schedule: Q01DX011 (ip), vehicle: carboxymethylcellulose (CMC)) was 55 % of control and the T/C (dose: 48.0 mg/kg/injection, schedule: Q01DX011 (ip), vehicle: carboxymethylcellulose (CMC)) was 13 % of control.
In the case of C=CCSc1nc(N)nc2nc[nH]c12, the T/C (dose: 2.0 mg/kg/injection, schedule: Q01DX011 (ip), vehicle: methylcellulose (MC)) is reported as 50 % of control, the T/C (dose: 4.0 mg/kg/injection, schedule: Q01DX011 (ip), vehicle: methylcellulose (MC)) is reported as 41 % of control and the T/C (dose: 16.0 mg/kg/injection, schedule: Q01DX011 (ip), vehicle: methylcellulose (MC)) is reported as 3 % of control.
In the case of O=c1[nH]cnc2c1ncn2C1CCCCC1, the T/C (dose: 23.0 mg/kg/injection, schedule: Q01DX011 (ip), vehicle: carboxymethylcellulose (CMC)) is reported as 93 % of control and 111 % of control, the T/C (dose: 23.1 mg/kg/injection, schedule: Q01DX011 (ip), vehicle: carboxymethylcellulose (CMC)) is reported as 86 % of control and the T/C (dose: 23.12 mg/kg/injection, schedule: Q01DX011 (ip), vehicle: carboxymethylcellulose (CMC)) is reported as 74 % of control. For the same molecule, the T/C (dose: 46.0 mg/kg/injection, schedule: Q01DX011 (ip), vehicle: carboxymethylcellulose (CMC)) was 74 % of control and 85 % of control, the T/C (dose: 46.2 mg/kg/injection, schedule: Q01DX011 (ip), vehicle: carboxymethylcellulose (CMC)) was 118 % of control and the T/C (dose: 46.25 mg/kg/injection, schedule: Q01DX011 (ip), vehicle: carboxymethylcellulose (CMC)) was 117 % of control. For the same molecule, the T/C (dose: 46.25 mg/kg/injection, schedule: Q01DX011 (oral), vehicle: carboxymethylcellulose (CMC)) was 104 % of control, the T/C (dose: 92.5 mg/kg/injection, schedule: Q01DX011 (ip), vehicle: carboxymethylcellulose (CMC)) was 90 % of control and 99 % of control and 108 % of control and the T/C (dose: 92.5 mg/kg/injection, schedule: Q01DX011 (oral), vehicle: carboxymethylcellulose (CMC)) was 118 % of control. For the same molecule, the T/C (dose: 185.0 mg/kg/injection, schedule: Q01DX011 (oral), vehicle: carboxymethylcellulose (CMC)) was 114 % of control and the T/C (dose: 370.0 mg/kg/injection, schedule: Q01DX011 (oral), vehicle: carboxymethylcellulose (CMC)) was 79 % of control.
In the case of CCCCCCn1cnc2c(=S)nc[nH]c21, the T/C (dose: 63.0 mg/kg/injection, schedule: Q01DX011 (ip), vehicle: carboxymethylcellulose (CMC)) is reported as 50 % of control and the T/C (dose: 500.0 mg/kg/injection, schedule: Q01DX011 (ip), vehicle: carboxymethylcellulose (CMC)) is reported as 5 % of control and 13 % of control.
For NCC(N)=O, the T/C [2] was 86 % of control, the T/C [3] was 79 % of control and the T/C (dose: 400.0 mg/kg/injection, schedule: Q01DX011 (ip), vehicle: other) was 56 % of control.
